Source: ChEMBL document CHEMBL5608252, “New Potent Sulfonamide-Based Inhibitors of S. aureus Biotin Protein Ligase” (ACS Med Chem Lett, 2024)
Converted amounts (≈) assume the structure as drawn.

Assays:
[1] = Inhibition of Staphylococcus aureus BPL assessed as inhibition constant by biotinylation assay
Staphylococcus aureus [2] = test: Antibacterial activity against methicillin-resistant Staphylococcus aureus USA300 incubated for 16 to 20 hrs by CLSI based broth microdilution method; type: functional; details: time 16-20 hrs
Staphylococcus aureus [3] = test: Antibacterial activity against methicillin-resistant Staphylococcus aureus […] incubated for 16 to 20 hrs by CLSI based broth microdilution method; type: functional; details: time 16-20 hrs
Staphylococcus aureus [4] = test: Antibacterial activity against methicillin-susceptible Staphylococcus aureus ATCC 29213 incubated for 16 to 20 hrs by CLSI based broth microdilution method; type: functional; details: time 16-20 hrs
Staphylococcus aureus [5] = test: Antibacterial activity against methicillin-susceptible Staphylococcus aureus ATCC 49775 incubated for 16 to 20 hrs by CLSI based broth microdilution method; type: functional; details: time 16-20 hrs

| SMILES | Ki [1] [nM] | MIC (Staphylococcus aureus [2]) [µg/mL] | MIC (Staphylococcus aureus [3]) [µg/mL] | MIC (Staphylococcus aureus [4]) [µg/mL] | MIC (Staphylococcus aureus [5]) [µg/mL] |
| --- | --- | --- | --- | --- | --- |
| Nc1ncnc2c1ncn2CCCCNS(=O)(=O)NC(=O)NCCCC[C@@H]1SC[C@@H]2NC(=O)N[C@@H]21 | 65 |  |  |  |  |
| Nc1ncnc2c1ncn2CCCCS(=O)(=O)NC(=O)OCCCCC[C@@H]1SC[C@@H]2NC(=O)N[C@@H]21 | 10.3 | > 256 | > 256 | > 256 | > 256 |
| Nc1ncnc2c1ncn2CCCCOS(=O)(=O)NC(=O)NCCCC[C@@H]1SC[C@@H]2NC(=O)N[C@@H]21 | 35.3 | 32 (≈ 60.6 µM) | 16 (≈ 30.3 µM) | 32 (≈ 60.6 µM) | 32 (≈ 60.6 µM) |
| Nc1ncnc2c1ncn2CCCCNS(=O)(=O)NC(=O)CCCC[C@@H]1SC[C@@H]2NC(=O)N[C@@H]21 | 7 |  |  |  |  |
| Nc1ncnc2c1ncn2CCCCCS(=O)(=O)NC(=O)NCCCC[C@@H]1SC[C@@H]2NC(=O)N[C@@H]21 | 57.2 | 16 (≈ 30.4 µM) | 16 (≈ 30.4 µM) | 16 (≈ 30.4 µM) | 16 (≈ 30.4 µM) |
| Nc1ncnc2c1ncn2CCCNS(=O)(=O)NC(=O)OCCCCC[C@@H]1SC[C@@H]2NC(=O)N[C@@H]21 | 20.1 | 32 (≈ 60.6 µM) | 16 (≈ 30.3 µM) | 32 (≈ 60.6 µM) | 32 (≈ 60.6 µM) |
